# Data taken from patent US20120225862A1, “HETEROARYL BENZAMIDES, COMPOSITIONS AND METHODS OF USE” (AUCKLAND UNIVSERVICES LIMITED, priority 2009, published 2012).
# Assays:
# RCC4/VHL = assay: XTT IC50 assay, selectivity RCC4 versus RCC4 with VHL-reintroduced; assay type: cell-based, human; details: selectivity ratio of XTT IC50 values, RCC4 vs RCC4/VHL
# Outline: (§1)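 RCC4 parental and VHL-reintroduced RCC4/VHL cells (DMEM, 10% FCS) treated with serially diluted drug for four days. Viability by XTT (0.3 mg/mL) with N-methyl dibenzopyrazine methyl sulfate, 1–2 h at 37 °C, absorbance 450 nm; IC50 by linear interpolation.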
# ACHN = assay: Xenograft tumor growth, ACHN with wild-type VHL; assay type: in vivo, mice; details: daily treatment vs vehicle control
# Description: (§2) Five million cells were injected into the flanks of nu/nu mice (4-6 weeks old males) and allowed to grow to approximately 50 mm^3. The mice were injected daily by intra-peritoneal to deliver either vehicle or drug. Tumors were measured every other day and tumor volume was calculated as 0.5 length by width squared.
# (§3) In Vivo Studies and Immunohistochemistry. All experiments were approved by Stanford's Administrative Panel on Laboratory Animal Care (APLAC) and in accordance with both institutional and national guidelines. Five million cells were implanted subcutaneously into the flanks of nude mice (4-6 weeks old)(Charles River Laboratories). Tumors were measured with calipers. Volume was calculated by the following formula: width^2×0.5 length. Once tumors reached an average size of >20 mm^3, mice were randomized into vehicle (DMSO diluted in 16% cremaphor EL/PBS) or treated groups. Mice were treated with compound 85 (11.6 mg/kg for the first 3 days, followed by 7.8 mg/kg for the 7-9 days). Five-micron sections were cut for immunohistochemistry. Sections were counterstained with hematoxylin and eosin. For 2-[^18F]-fluoro-2-deoxy-glucose-positron emission tomography imaging, mice bearing tumors were fasted overnight. The next day, the mice were anesthetized with 2% isoflurane and injected intraperitoneally with 250 μCi of FDG. […]
# [1] = Normal tissue toxicity (histology); assay type: in vivo; details: treated mice; kidney, spleen, liver, heart, salivary gland, brain
# Description: FIG. 5A-E In vivo monitoring and efficacy of compound 47. […] 786-O, a renal clear cell carcinoma with a naturally occurring VHL mutation, were implanted subcutaneously into the flanks of CD-1 nude mice. Representative axial cross section of a mouse prior to treatment (left) and following three daily i.p. injections with compound 85 (11.6 mg/kg)(right), overlaid over CT scan. (B) Quantitatively, compound 85 inhibits FDG-PET in mouse xenografts. Quantification of FDG-PET inhibition by compound 85 as determined by the 90th percentile ROI for percent injected dose per gram (% ID/g) (*p<0.01). (C) Compound 85 is not toxic to normal tissues. (a, b) Kidney of vehicle- and compound 85-treated animals. (c, d) Spleen of vehicle- and compound 85-treated animals. (e, f) Liver of vehicle- and compound 85-treated animals. (g, h) Heart of vehicle- and compound 85-treated animals. (i, j) Salivary gland of vehicle- and compound 85-treated animals. (k, l) Brain of vehicle- and compound 85-treated animals. Scale bar represents 100 microns. (D) Compound 85 delays tumor growth. 786-O tumor-bearing mice were treated daily with vehicle or compound 85 (11.6 mg/kg for the first 3 days, followed by 7.8 mg/kg for the next week)(*p<0.005). […]
# In Vivo Studies and Immunohistochemistry. […] Tumors were measured with calipers. Volume was calculated by the following formula: width^2×0.5 length. […]
# ACHN shVHL = assay: Xenograft tumor growth, ACHN expressing shRNA to VHL; assay type: in vivo, mice; details: daily systemic treatment ten to fourteen days, vs vehicle
# Description: as §2, §3
# [2] = Solubility (comparison in words); assay type: physicochemical
# 786-O [3] = assay: FDG-PET imaging of 786-O xenografts; assay type: in vivo, mice
# Description: FIG. 5A-E In vivo monitoring and efficacy of compound 47. […] 786-O, a renal clear cell carcinoma with a naturally occurring VHL mutation, were implanted subcutaneously into the flanks of CD-1 nude mice. Representative axial cross section of a mouse prior to treatment (left) and following three daily i.p. injections with compound 85 (11.6 mg/kg)(right), overlaid over CT scan. (B) Quantitatively, compound 85 inhibits FDG-PET in mouse xenografts. Quantification of FDG-PET inhibition by compound 85 as determined by the 90th percentile ROI for percent injected dose per gram (% ID/g) (*p<0.01). (C) Compound 85 is not toxic to normal tissues. (a, b) Kidney of vehicle- and compound 85-treated animals. (c, d) Spleen of vehicle- and compound 85-treated animals. (e, f) Liver of vehicle- and compound 85-treated animals. (g, h) Heart of vehicle- and compound 85-treated animals. (i, j) Salivary gland of vehicle- and compound 85-treated animals. (k, l) Brain of vehicle- and compound 85-treated animals. Scale bar represents 100 microns. (D) Compound 85 delays tumor growth. 786-O tumor-bearing mice were treated daily with vehicle or compound 85 (11.6 mg/kg for the first 3 days, followed by 7.8 mg/kg for the next week)(*p<0.005). (E) Compound 85 delays tumor growth in cells that have lost VHL. ACHN cells expressing a short hairpin RNA to VHL were implanted subcutaneously into the flanks of immunocompromised mice. Once tumors reached an average of >20 mm^3, mice were treated daily with compound 85 or vehicle (*p<0.05). All error bars represent the standard error of the mean.
# In Vivo Studies and Immunohistochemistry. All experiments were approved by Stanford's Administrative Panel on Laboratory Animal Care (APLAC) and in accordance with both institutional and national guidelines. Five million cells were implanted subcutaneously into the flanks of nude mice (4-6 weeks old)(Charles River Laboratories). Tumors were measured with calipers. Volume was calculated by the following formula: width^2×0.5 length. […]
# RCC4 = assay: XTT IC50 / viability assay, RCC4 cells; assay type: cell-based, human; details: Homo sapiens, RCC4, 96 h; XTT assay, four days
# Outline: as §1
# 786-O [4] = assay: Xenograft tumor growth, 786-O; assay type: in vivo, mice; details: daily, 11.6 mg/kg for 3 days then 7.8 mg/kg, ten to fourteen days, vs vehicle
# Description: as §2, §3
structure (smiles),measurement,setting,value
"CN1CCN(c2ccc(S(=O)(=O)NCc3ccc(C(=O)Nc4cccnc4)cc3)cc2)CC1 [Example 76, 4-((4-(4-Methylpiperazin-1-yl)phenylsulfonamido)methyl)-N-(pyridin-3-yl)benzamide]",Ratio (RCC4:RCC/VHL),RCC4/VHL,c (“c” reflects a ratio of >100)
same,"tumor growth, ACHN wild-type VHL xenografts",ACHN,grew at similar rates
same,normal tissue toxicity,[1],no normal tissue toxicity
same,"tumor growth, ACHN shVHL xenografts",ACHN shVHL,markedly delayed tumor growth
same,solubility relative to compound 47,[2],more soluble
same,glucose uptake within tumors by FDG-PET,"786-O [3]; 786-O xenografts in CD-1 nude mice, three daily i.p. doses (11.6 mg/kg)",striking decrease in glucose uptake within the tumors
same,"tumor FDG uptake, quantified (% ID/g)","786-O [3]; 786-O xenografts, FIG. 5B",consistently decreased FDG uptake
same,IC50,RCC4,< 1 µM
same,"tumor growth, 786-O xenografts",786-O [4],markedly delayed tumor growth
